Data as given in the supplement of paper PMC10307832.

Key:
Experiment in all cases: relative viability (nuclei count vs DMSO), 5 days (fraction); higher = more cells survive
Everolimus + Phenformin = compound: CO[C@H]1C[C@@H]2CC[C@@H](C)[C@@](O)(O2)C(=O)C(=O)N2CCCC[C@H]2C(=O)O[C@H]([C@H](C)C[C@@H]2CC[C@@H](OCCO)[C@H](OC)C2)CC(=O)[C@H](C)/C=C(\C)[C@@H](O)[C@@H](OC)C(=O)[C@H](C)C[C@H](C)/C=C/C=C/C=C/1C [Everolimus] + N=C(N)NC(=N)NCCc1ccccc1 [Phenformin] (partner 250 µM)
Summary of the method: (§1)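 Values are medians from duplicate plates. Each reflects relative viability, defined as the nuclei count of treated wells over that of vehicle wells. Lung cancer cell lines in 1536-well plates were pin-tool dosed one day after seeding with one drug alone or with a fixed anchor-drug dose plus five library-drug doses (not always all listed) in √10 steps, then fixed, stained and imaged at 4× after 5 days.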

Everolimus + Olaparib = compound: CO[C@H]1C[C@@H]2CC[C@@H](C)[C@@](O)(O2)C(=O)C(=O)N2CCCC[C@H]2C(=O)O[C@H]([C@H](C)C[C@@H]2CC[C@@H](OCCO)[C@H](OC)C2)CC(=O)[C@H](C)/C=C(\C)[C@@H](O)[C@@H](OC)C(=O)[C@H](C)C[C@H](C)/C=C/C=C/C=C/1C [Everolimus] + O=C(c1cc(Cc2n[nH]c(=O)c3ccccc23)ccc1F)N1CCN(C(=O)C2CC2)CC1 [Olaparib] (partner 8 µM)
Summary of the method: as §1

Everolimus + Trametinib = compound: CO[C@H]1C[C@@H]2CC[C@@H](C)[C@@](O)(O2)C(=O)C(=O)N2CCCC[C@H]2C(=O)O[C@H]([C@H](C)C[C@@H]2CC[C@@H](OCCO)[C@H](OC)C2)CC(=O)[C@H](C)/C=C(\C)[C@@H](O)[C@@H](OC)C(=O)[C@H](C)C[C@H](C)/C=C/C=C/C=C/1C [Everolimus] + CC(=O)Nc1cccc(-n2c(=O)n(C3CC3)c(=O)c3c(Nc4ccc(I)cc4F)n(C)c(=O)c(C)c32)c1 [Trametinib] (partner 0.02 µM)
Summary of the method: as §1

Everolimus = compound: CO[C@H]1C[C@@H]2CC[C@@H](C)[C@@](O)(O2)C(=O)C(=O)N2CCCC[C@H]2C(=O)O[C@H]([C@H](C)C[C@@H]2CC[C@@H](OCCO)[C@H](OC)C2)CC(=O)[C@H](C)/C=C(\C)[C@@H](O)[C@@H](OC)C(=O)[C@H](C)C[C@H](C)/C=C/C=C/C=C/1C [Everolimus]
Summary of the method: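 Five library-drug doses spaced by √10 were pinned onto vehicle-anchored 1536-well plates of lung cancer cell lines that had been kept overnight at 37 °C. Cells went 5 days without medium change, then were fixed, permeabilised and Hoechst-stained together, imaged at 4× and counted by MetaXpress. Viability is the ratio of treated-well to vehicle-well nuclei, taken as a median over plates. Plates required control CV below 25% and at least one doubling.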

HCC-827
relative viability (Everolimus + Phenformin; first compound 0.01 µM): 0.434 | relative viability (Everolimus + Phenformin; first compound 0.03162 µM): 0.404 | relative viability (Everolimus + Phenformin; first compound 0.1 µM): 0.416 | relative viability (Everolimus + Phenformin; first compound 0.3162 µM): 0.396 | relative viability (Everolimus + Phenformin; first compound 1 µM): 0.403 | relative viability (Everolimus + Olaparib; first compound 0.01 µM): 0.73 | relative viability (Everolimus + Olaparib; first compound 0.03162 µM): 0.672 | relative viability (Everolimus + Olaparib; first compound 0.1 µM): 0.681 | relative viability (Everolimus + Olaparib; first compound 0.3162 µM): 0.501 | relative viability (Everolimus + Olaparib; first compound 1 µM): 0.645 | relative viability (Everolimus + Trametinib; first compound 0.01 µM): 0.494 | relative viability (Everolimus + Trametinib; first compound 0.03162 µM): 0.314 | relative viability (Everolimus + Trametinib; first compound 0.1 µM): 0.311 | relative viability (Everolimus + Trametinib; first compound 0.3162 µM): 0.31 | relative viability (Everolimus + Trametinib; first compound 1 µM): 0.295 | relative viability (Everolimus; 0.01 µM): 1.1 | relative viability (Everolimus; 0.03162 µM): 1.09 | relative viability (Everolimus; 0.1 µM): 1.01 | relative viability (Everolimus; 0.3162 µM): 1.03 | relative viability (Everolimus; 1 µM): 1.05

ChaGo-K-1
relative viability (Everolimus + Phenformin; first compound 0.01 µM): 0.532 | relative viability (Everolimus + Phenformin; first compound 0.03162 µM): 0.467 | relative viability (Everolimus + Phenformin; first compound 0.1 µM): 0.394 | relative viability (Everolimus + Phenformin; first compound 0.3162 µM): 0.536 | relative viability (Everolimus + Phenformin; first compound 1 µM): 0.568 | relative viability (Everolimus + Olaparib; first compound 0.01 µM): 0.424 | relative viability (Everolimus + Olaparib; first compound 0.03162 µM): 0.492 | relative viability (Everolimus + Olaparib; first compound 0.1 µM): 0.466 | relative viability (Everolimus + Olaparib; first compound 0.3162 µM): 0.401 | relative viability (Everolimus + Olaparib; first compound 1 µM): 0.494 | relative viability (Everolimus + Trametinib; first compound 0.01 µM): 0.647 | relative viability (Everolimus + Trametinib; first compound 0.03162 µM): 0.795 | relative viability (Everolimus + Trametinib; first compound 0.1 µM): 0.729 | relative viability (Everolimus + Trametinib; first compound 0.3162 µM): 0.751 | relative viability (Everolimus + Trametinib; first compound 1 µM): 0.796 | relative viability (Everolimus; 0.01 µM): 0.976 | relative viability (Everolimus; 0.03162 µM): 0.95 | relative viability (Everolimus; 0.1 µM): 0.865 | relative viability (Everolimus; 0.3162 µM): 0.899 | relative viability (Everolimus; 1 µM): 0.974

NCI-H2228
relative viability (Everolimus + Phenformin; first compound 0.01 µM): 0.214 | relative viability (Everolimus + Phenformin; first compound 0.03162 µM): 0.194 | relative viability (Everolimus + Phenformin; first compound 0.1 µM): 0.172 | relative viability (Everolimus + Phenformin; first compound 0.3162 µM): 0.291 | relative viability (Everolimus + Phenformin; first compound 1 µM): 0.187 | relative viability (Everolimus + Olaparib; first compound 0.01 µM): 0.658 | relative viability (Everolimus + Olaparib; first compound 0.03162 µM): 0.289 | relative viability (Everolimus + Olaparib; first compound 0.1 µM): 0.336 | relative viability (Everolimus + Olaparib; first compound 0.3162 µM): 0.266 | relative viability (Everolimus + Olaparib; first compound 1 µM): 0.311 | relative viability (Everolimus + Trametinib; first compound 0.01 µM): 0.33 | relative viability (Everolimus + Trametinib; first compound 0.03162 µM): 0.237 | relative viability (Everolimus + Trametinib; first compound 0.1 µM): 0.256 | relative viability (Everolimus + Trametinib; first compound 0.3162 µM): 0.251 | relative viability (Everolimus + Trametinib; first compound 1 µM): 0.265 | relative viability (Everolimus; 0.01 µM): 0.706 | relative viability (Everolimus; 0.03162 µM): 0.593 | relative viability (Everolimus; 0.1 µM): 0.51 | relative viability (Everolimus; 0.3162 µM): 0.533 | relative viability (Everolimus; 1 µM): 0.582

NCI-H2170
relative viability (Everolimus + Phenformin; first compound 0.01 µM): 0.388 | relative viability (Everolimus + Phenformin; first compound 0.03162 µM): 0.402 | relative viability (Everolimus + Phenformin; first compound 0.1 µM): 0.387 | relative viability (Everolimus + Phenformin; first compound 0.3162 µM): 0.403 | relative viability (Everolimus + Phenformin; first compound 1 µM): 0.414 | relative viability (Everolimus + Olaparib; first compound 0.01 µM): 0.361 | relative viability (Everolimus + Olaparib; first compound 0.03162 µM): 0.285 | relative viability (Everolimus + Olaparib; first compound 0.1 µM): 0.318 | relative viability (Everolimus + Olaparib; first compound 0.3162 µM): 0.329 | relative viability (Everolimus + Olaparib; first compound 1 µM): 0.316 | relative viability (Everolimus + Trametinib; first compound 0.01 µM): 0.316 | relative viability (Everolimus + Trametinib; first compound 0.03162 µM): 0.248 | relative viability (Everolimus + Trametinib; first compound 0.1 µM): 0.266 | relative viability (Everolimus + Trametinib; first compound 0.3162 µM): 0.252 | relative viability (Everolimus + Trametinib; first compound 1 µM): 0.279 | relative viability (Everolimus; 0.01 µM): 0.459 | relative viability (Everolimus; 0.03162 µM): 0.45 | relative viability (Everolimus; 0.1 µM): 0.428 | relative viability (Everolimus; 0.3162 µM): 0.459 | relative viability (Everolimus; 1 µM): 0.464

EMC-BAC-2
relative viability (Everolimus + Phenformin; first compound 0.01 µM): 0.377 | relative viability (Everolimus + Phenformin; first compound 0.03162 µM): 0.364 | relative viability (Everolimus + Phenformin; first compound 0.1 µM): 0.322 | relative viability (Everolimus + Phenformin; first compound 0.3162 µM): 0.383 | relative viability (Everolimus + Phenformin; first compound 1 µM): 0.422 | relative viability (Everolimus + Olaparib; first compound 0.01 µM): 0.455 | relative viability (Everolimus + Olaparib; first compound 0.03162 µM): 0.43 | relative viability (Everolimus + Olaparib; first compound 0.1 µM): 0.385 | relative viability (Everolimus + Olaparib; first compound 0.3162 µM): 0.383 | relative viability (Everolimus + Olaparib; first compound 1 µM): 0.347 | relative viability (Everolimus + Trametinib; first compound 0.01 µM): 0.502 | relative viability (Everolimus + Trametinib; first compound 0.03162 µM): 0.605 | relative viability (Everolimus + Trametinib; first compound 0.1 µM): 0.536 | relative viability (Everolimus + Trametinib; first compound 1 µM): 0.503 | relative viability (Everolimus; 0.01 µM): 0.689 | relative viability (Everolimus; 0.03162 µM): 0.606 | relative viability (Everolimus; 0.1 µM): 0.55 | relative viability (Everolimus; 0.3162 µM): 0.473 | relative viability (Everolimus; 1 µM): 0.565

NCI-H2342
relative viability (Everolimus + Phenformin; first compound 0.01 µM): 0.436 | relative viability (Everolimus + Phenformin; first compound 0.03162 µM): 0.34 | relative viability (Everolimus + Phenformin; first compound 0.1 µM): 0.352 | relative viability (Everolimus + Phenformin; first compound 0.3162 µM): 0.411 | relative viability (Everolimus + Phenformin; first compound 1 µM): 0.49 | relative viability (Everolimus + Olaparib; first compound 0.01 µM): 0.385 | relative viability (Everolimus + Olaparib; first compound 0.03162 µM): 0.363 | relative viability (Everolimus + Olaparib; first compound 0.1 µM): 0.304 | relative viability (Everolimus + Olaparib; first compound 0.3162 µM): 0.333 | relative viability (Everolimus + Olaparib; first compound 1 µM): 0.36 | relative viability (Everolimus + Trametinib; first compound 0.01 µM): 0.649 | relative viability (Everolimus + Trametinib; first compound 0.03162 µM): 0.54 | relative viability (Everolimus + Trametinib; first compound 0.1 µM): 0.482 | relative viability (Everolimus + Trametinib; first compound 0.3162 µM): 0.468 | relative viability (Everolimus + Trametinib; first compound 1 µM): 0.583 | relative viability (Everolimus; 0.01 µM): 0.569 | relative viability (Everolimus; 0.03162 µM): 0.512 | relative viability (Everolimus; 0.1 µM): 0.531 | relative viability (Everolimus; 0.3162 µM): 0.667 | relative viability (Everolimus; 1 µM): 0.641

NCI-H23
relative viability (Everolimus + Phenformin; first compound 0.01 µM): 0.641 | relative viability (Everolimus + Phenformin; first compound 0.03162 µM): 0.607 | relative viability (Everolimus + Phenformin; first compound 0.1 µM): 0.508 | relative viability (Everolimus + Phenformin; first compound 0.3162 µM): 0.593 | relative viability (Everolimus + Phenformin; first compound 1 µM): 0.496 | relative viability (Everolimus + Olaparib; first compound 0.01 µM): 0.261 | relative viability (Everolimus + Olaparib; first compound 0.03162 µM): 0.219 | relative viability (Everolimus + Olaparib; first compound 0.1 µM): 0.267 | relative viability (Everolimus + Olaparib; first compound 0.3162 µM): 0.221 | relative viability (Everolimus + Olaparib; first compound 1 µM): 0.22 | relative viability (Everolimus + Trametinib; first compound 0.01 µM): 0.248 | relative viability (Everolimus + Trametinib; first compound 0.03162 µM): 0.204 | relative viability (Everolimus + Trametinib; first compound 0.1 µM): 0.218 | relative viability (Everolimus + Trametinib; first compound 0.3162 µM): 0.252 | relative viability (Everolimus + Trametinib; first compound 1 µM): 0.216 | relative viability (Everolimus; 0.01 µM): 0.639 | relative viability (Everolimus; 0.03162 µM): 0.516 | relative viability (Everolimus; 0.1 µM): 0.468 | relative viability (Everolimus; 0.3162 µM): 0.583 | relative viability (Everolimus; 1 µM): 0.55
